Source: patent US12486279B2, “Indole alkaloid with fungicidal effect” (priority 2020, dated 2025)
Values after ≈ are worked out from the molar mass of the structure shown. Read-outs that look alike come from different tables or passages of the source.

Experiments:
[1] = system: Daphnia magna; conditions: cited from earlier work
[2] = system: various fish species; conditions: 48 to 96 h after exposure; cited from earlier work
[3] = system: Colletotrichum gloeosporioides; test: Minimum inhibitory concentration (MIC), triphenyl tetrazolium chloride reduction, Colletotrichum gloeosporioides; format: cell-based; conditions: for Growth of the fungus on plates: 7.81 to 250 mg/mL, analyst 1; for Growth of the fungus on plates / Absorbance compared with the control: both days; for MIC: Colletotrichum gloeosporioides; for Absorbance compared with the control: all 8 concentrations
Protocol: First, its effect on the growth of samples of Colletotrichum gloeosporioides was assessed. The weighting of the activity was established in a spectrophotometric model through the reduction of Triphenyl Tetrazolium Chloride as a measure of […] metabolism (oxide reduction system). The C. gloeosporioides samples were incubated for 24 h at 37° C. in the presence of increasing amounts of Andranone and the control agents Chlorothalonil and Mancozeb. After the indicated time, the amount of formazan produced was assessed by colorimetry, which is indicative of the amount of viable fungal cells after the treatments.

[4] = system: small fish; conditions: cited from earlier work
[5] = acidic or neutral conditions; cited from earlier work
[6] = system: Fusarium oxysporum; test: Minimum inhibitory concentration (MIC), Fusarium oxysporum; format: cell-based; conditions: for Trend of absorbance with concentration: FIG. 6, 2 days; for Growth of the fungus on plates: 15.62-2000 mg/mL
[7] = system: agricultural workers; conditions: exposed agricultural workers (Dennis et al. 2010); cited from earlier work
[8] = system: women exposed to Mancozeb; conditions: exposed women (Van Wendel de Joode et al. 2014); cited from earlier work
[9] = 6 technical replicates, 2 days, with standard deviation, 24 h at 37° C.

Compound: N#Cc1c(Cl)c(Cl)c(Cl)c(C#N)c1Cl [Chlorothalonil, tetrachloro-isophthalonitrile]
- Concentration causing a delay in reproduction [1]: 32 ng/mL
- Median lethal toxicity values (LC50) [2]: less than 20 μg/L
- Growth of the fungus on plates [3]: the fungus was not able to grow in any of the evaluated concentrations
- MIC ([3]; 6 technical replicates, 2 days, with standard deviation, 24 h at 37° C., read-out: Minimum inhibitory concentration (MIC), Average Analyst 1): 7.8 mg/mL (≈ 29.3 mM)
- MIC ([3]; 6 technical replicates, 2 days, with standard deviation, 24 h at 37° C., read-out: Minimum inhibitory concentration (MIC), Average Analyst 2): 23.4 ± 22.1 mg/mL (≈ 88 mM)
- MIC ([3]; average of 2 analysts, with standard deviation, read-out: Minimum inhibitory concentration (MIC), Average): 15.6 ± 11 mg/mL (≈ 58.7 mM)
- Absorbance compared with the control [3]: lower absorbances than the control in the 8 concentrations
- Concentration decreasing eggs per spawning, hatchability of eggs and survival of the fry [4]: 6.5 ng/mL
- Stability to hydrolysis [5]: stable to hydrolysis
- Trend of absorbance with concentration [6]: trend similar to that of Mancozeb
- MIC ([6]; Fusarium oxysporum, average of a biological replica on 2 different days): 1 mg/mL (≈ 3.76 mM)
- Absorbance (570 nm) ([6]; at the concentration at which the MIC was established, average of 2 days): 0.45 ± 0.04
- Inhibition Type ([6]; class from MIC): Moderate (a moderate inhibition occurs in compounds with a MIC between 0.6 to 1 mg/mL)
- Growth of the fungus on plates ([6]; day 1): the fungus was not able to grow in the highest concentrations of this fungicide
- Growth of the fungus on plates ([6]; day 2): a slight growth of the fungus was observed, mainly at concentrations of 125 to 2000 mg/mL

Compound: Mancozeb
- Minimum inhibitory concentration (MIC), Average Analyst 1 [3, 9]: 7.8 ± 0.0 mg/mL
- Minimum inhibitory concentration (MIC), Average Analyst 2 [3, 9]: 15.6 ± 11.0 mg/mL
- Growth of the fungus on plates [3]: no growth of the fungus was observed in any of the concentrations evaluated
- Absorbance compared with the control [3]: the absorbance is lower compared to the absorbance of the control
- Minimum inhibitory concentration (MIC), Average ([3]; average of 2 analysts, with standard deviation): 11.7 ± 5.5 mg/mL
- Risk of developing cutaneous melanoma [7]: significantly increases the risk of developing cutaneous melanoma
- Ethylene thiourea (ETU) in urine [8]: elevated levels of ethylene thiourea in urine
- Trend of absorbance with concentration [6]: the absorbance increases as the concentration of this compound increase
- Growth of the fungus on plates ([6]; both days, no change in salt color): a slight growth of the fungus was observed, mainly at concentrations of 250 to 2000 mg/mL
